Experimental data from ChEMBL document CHEMBL4004803, “Syntheses and antibacterial activity of soluble 9-bromo substituted indolizinoquinoline-5,12-dione derivatives” (Eur J Med Chem, 2017).
Converted amounts (≈) assume the structure as drawn.

How the values were obtained:
Format in all cases: functional
[1] = test system: Staphylococcus aureus; test: Antibacterial activity against methicillin-resistant Staphylococcus aureus 531220 clinical isolate after 20 to 24 hrs by two-fold microdilution method
[2] = test system: Staphylococcus aureus; test: Antibacterial activity against methicillin-resistant Staphylococcus aureus 1029025 clinical isolate after 20 to 24 hrs by two-fold microdilution method
[3] = test system: Staphylococcus aureus; test: Antibacterial activity against methicillin-resistant Staphylococcus aureus 523005 clinical isolate after 20 to 24 hrs by two-fold microdilution method
[4] = test system: Staphylococcus aureus; test: Antibacterial activity against methicillin-resistant Staphylococcus aureus 110325 clinical isolate after 20 to 24 hrs by two-fold microdilution method
[5] = test system: Staphylococcus aureus; test: Antibacterial activity against methicillin-resistant Staphylococcus aureus 1215028 clinical isolate after 20 to 24 hrs by two-fold microdilution method
[6] = test system: Staphylococcus aureus; test: Antibacterial activity against methicillin-resistant Staphylococcus aureus 1214023 clinical isolate after 20 to 24 hrs by two-fold microdilution method
[7] = test system: Streptococcus pneumoniae; test: Antibacterial activity against Streptococcus pneumoniae ATCC 6305 after 20 to 24 hrs by two-fold microdilution method
[8] = test system: Staphylococcus aureus; test: Antibacterial activity against methicillin-resistant Staphylococcus aureus 219236 clinical isolate after 20 to 24 hrs by two-fold microdilution method
[9] = test system: Staphylococcus aureus; test: Antibacterial activity against methicillin-resistant Staphylococcus aureus 110910-2 clinical isolate after 20 to 24 hrs by two-fold microdilution method
[10] = test system: Staphylococcus aureus; test: Antibacterial activity against methicillin-resistant Staphylococcus aureus 20339 clinical isolate after 20 to 24 hrs by two-fold microdilution method
[11] = test system: Staphylococcus aureus; test: Antibacterial activity against methicillin-resistant Staphylococcus aureus 221022 clinical isolate after 20 to 24 hrs by two-fold microdilution method
[12] = test system: Streptococcus pyogenes; test: Antibacterial activity against Streptococcus pyogenes ATCC 19615 after 20 to 24 hrs by two-fold microdilution method
[13] = test system: Staphylococcus aureus; test: Antibacterial activity against methicillin-resistant Staphylococcus aureus 224001 clinical isolate after 20 to 24 hrs by two-fold microdilution method
[14] = test system: Staphylococcus aureus; test: Antibacterial activity against methicillin-resistant Staphylococcus aureus GLH14 clinical isolate after 20 to 24 hrs by two-fold microdilution method
[15] = test system: Staphylococcus aureus; test: Antibacterial activity against methicillin-resistant Staphylococcus aureus 12308 clinical isolate after 20 to 24 hrs by two-fold microdilution method
[16] = test system: Staphylococcus aureus; test: Antibacterial activity against methicillin-resistant Staphylococcus aureus 316031 clinical isolate after 20 to 24 hrs by two-fold microdilution method
[17] = test system: Staphylococcus aureus; test: Antibacterial activity against methicillin-resistant Staphylococcus aureus 908046 clinical isolate after 20 to 24 hrs by two-fold microdilution method
[18] = test system: Staphylococcus aureus; test: Antibacterial activity against methicillin-resistant Staphylococcus aureus 20106-2 clinical isolate after 20 to 24 hrs by two-fold microdilution method
[19] = test system: Staphylococcus aureus; test: Antibacterial activity against methicillin-resistant Staphylococcus aureus 118038 clinical isolate after 20 to 24 hrs by two-fold microdilution method
[20] = test system: Staphylococcus aureus; test: Antibacterial activity against methicillin-resistant Staphylococcus aureus 919205 clinical isolate after 20 to 24 hrs by two-fold microdilution method
[21] = test system: Staphylococcus aureus; test: Antibacterial activity against methicillin-resistant Staphylococcus aureus 110834 clinical isolate after 20 to 24 hrs by two-fold microdilution method
[22] = test system: Staphylococcus aureus; test: Antibacterial activity against methicillin-resistant Staphylococcus aureus 3250299 clinical isolate after 20 to 24 hrs by two-fold microdilution method
[23] = test system: Escherichia coli; test: Antibacterial activity against Escherichia coli ATCC 25922 after 20 to 24 hrs by two-fold microdilution method
[24] = test system: Staphylococcus aureus; test: Antibacterial activity against methicillin-resistant Staphylococcus aureus 214026 clinical isolate after 20 to 24 hrs by two-fold microdilution method
[25] = test system: Staphylococcus aureus; test: Antibacterial activity against methicillin-resistant Staphylococcus aureus 1012029 clinical isolate after 20 to 24 hrs by two-fold microdilution method
[26] = test system: Staphylococcus aureus; test: Antibacterial activity against methicillin-resistant Staphylococcus aureus 112047 clinical isolate after 20 to 24 hrs by two-fold microdilution method
[27] = test system: Staphylococcus aureus; test: Antibacterial activity against methicillin-resistant Staphylococcus aureus 1128040 clinical isolate after 20 to 24 hrs by two-fold microdilution method
[28] = test system: Staphylococcus aureus; test: Antibacterial activity against methicillin-resistant Staphylococcus aureus 829034 clinical isolate after 20 to 24 hrs by two-fold microdilution method
[29] = test system: Staphylococcus aureus; test: Antibacterial activity against methicillin-resistant Staphylococcus aureus 502025 clinical isolate after 20 to 24 hrs by two-fold microdilution method
[30] = test system: Staphylococcus aureus; test: Antibacterial activity against methicillin-resistant Staphylococcus aureus 212014 clinical isolate after 20 to 24 hrs by two-fold microdilution method
[31] = test system: Staphylococcus aureus; test: Antibacterial activity against methicillin-resistant Staphylococcus aureus ATCC 43300 after 20 to 24 hrs by two-fold microdilution method
[32] = test system: Staphylococcus aureus; test: Antibacterial activity against methicillin-resistant Staphylococcus aureus 1101016 clinical isolate after 20 to 24 hrs by two-fold microdilution method
[33] = test system: Staphylococcus aureus; test: Antibacterial activity against methicillin-resistant Staphylococcus aureus 122820-2 clinical isolate after 20 to 24 hrs by two-fold microdilution method
[34] = test system: Staphylococcus epidermidis; test: Antibacterial activity against Staphylococcus epidermidis ATCC 12228 after 20 to 24 hrs by two-fold microdilution method
[35] = test system: Staphylococcus aureus; test: Antibacterial activity against methicillin-resistant Staphylococcus aureus 1024004-2 clinical isolate after 20 to 24 hrs by two-fold microdilution method
[36] = test system: Staphylococcus aureus; test: Antibacterial activity against methicillin-resistant Staphylococcus aureus 414244 clinical isolate after 20 to 24 hrs by two-fold microdilution method
[37] = test system: Staphylococcus aureus; test: Antibacterial activity against methicillin-resistant Staphylococcus aureus clinical isolate after 20 to 24 hrs by two-fold microdilution method
[38] = test system: Staphylococcus aureus; test: Antibacterial activity against methicillin-resistant Staphylococcus aureus 1023043 clinical isolate after 20 to 24 hrs by two-fold microdilution method
[39] = test system: Staphylococcus aureus; test: Antibacterial activity against methicillin-resistant Staphylococcus aureus 1113041 clinical isolate after 20 to 24 hrs by two-fold microdilution method
[40] = test system: Staphylococcus aureus; test: Antibacterial activity against methicillin-resistant Staphylococcus aureus 19950 clinical isolate after 20 to 24 hrs by two-fold microdilution method
[41] = test system: Staphylococcus aureus; test: Antibacterial activity against methicillin-resistant Staphylococcus aureus 112430 clinical isolate after 20 to 24 hrs by two-fold microdilution method
[42] = test system: Staphylococcus aureus; test: Antibacterial activity against methicillin-resistant Staphylococcus aureus 131215 clinical isolate after 20 to 24 hrs by two-fold microdilution method
[43] = test system: Staphylococcus aureus; test: Antibacterial activity against methicillin-resistant Staphylococcus aureus 110414 clinical isolate after 20 to 24 hrs by two-fold microdilution method
[44] = test system: Staphylococcus aureus; test: Antibacterial activity against methicillin-resistant Staphylococcus aureus 531026 clinical isolate after 20 to 24 hrs by two-fold microdilution method
[45] = test system: Staphylococcus aureus; test: Antibacterial activity against methicillin-resistant Staphylococcus aureus 305026 clinical isolate after 20 to 24 hrs by two-fold microdilution method
[46] = test system: Staphylococcus aureus; test: Antibacterial activity against methicillin-resistant Staphylococcus aureus 519030 clinical isolate after 20 to 24 hrs by two-fold microdilution method
[47] = test system: Staphylococcus aureus; test: Antibacterial activity against methicillin-resistant Staphylococcus aureus 109016 clinical isolate after 20 to 24 hrs by two-fold microdilution method

O=C1c2cccnc2C(=O)c2c1c(C(=O)OCCCCCCN1CCCCC1)c1ccc(Br)cn21
MIC [1]: 0.25 µg/mL (≈ 0.464 µM) | MIC [2]: 0.063 µg/mL (≈ 0.117 µM) | MIC [3]: 0.125 µg/mL (≈ 0.232 µM) | MIC [4]: 0.031 µg/mL (≈ 0.0576 µM) | MIC [5]: 0.063 µg/mL (≈ 0.117 µM) | MIC [6]: ≤ 0.0078 µg/mL | MIC [7]: 0.5 µg/mL (≈ 0.929 µM) | MIC [8]: ≤ 0.0078 µg/mL | MIC [9]: 0.016 µg/mL (≈ 0.0297 µM) | MIC [10]: 0.125 µg/mL (≈ 0.232 µM) | MIC [11]: 0.125 µg/mL (≈ 0.232 µM) | MIC [12]: 2 µg/mL (≈ 3.71 µM) | MIC [13]: 0.125 µg/mL (≈ 0.232 µM) | MIC [14]: 0.063 µg/mL (≈ 0.117 µM) | MIC [15]: 0.063 µg/mL (≈ 0.117 µM) | MIC [16]: 0.125 µg/mL (≈ 0.232 µM) | MIC [17]: 0.031 µg/mL (≈ 0.0576 µM) | MIC [18]: 0.063 µg/mL (≈ 0.117 µM) | MIC [19]: 0.063 µg/mL (≈ 0.117 µM) | MIC [20]: 0.063 µg/mL (≈ 0.117 µM) | MIC [21]: 0.063 µg/mL (≈ 0.117 µM) | MIC [22]: 0.063 µg/mL (≈ 0.117 µM) | MIC [23]: 2 µg/mL (≈ 3.71 µM) | MIC [24]: ≤ 0.0078 µg/mL | MIC [25]: 0.063 µg/mL (≈ 0.117 µM) | MIC [26]: 0.031 µg/mL (≈ 0.0576 µM) | MIC [27]: 0.063 µg/mL (≈ 0.117 µM) | MIC [28]: 0.25 µg/mL (≈ 0.464 µM) | MIC [29]: 0.063 µg/mL (≈ 0.117 µM) | MIC [30]: ≤ 0.0078 µg/mL | MIC [31]: 0.063 µg/mL (≈ 0.117 µM) | MIC [32]: 0.063 µg/mL (≈ 0.117 µM) | MIC [33]: 0.063 µg/mL (≈ 0.117 µM) | MIC [34]: ≤ 0.0078 µg/mL | MIC [35]: 0.063 µg/mL (≈ 0.117 µM) | MIC [36]: 0.063 µg/mL (≈ 0.117 µM) | MIC50 [37]: 0.063 µg/mL (≈ 0.117 µM) | MIC90 [37]: 0.125 µg/mL (≈ 0.232 µM) | MIC [38]: 0.125 µg/mL (≈ 0.232 µM) | MIC [39]: 0.031 µg/mL (≈ 0.0576 µM) | MIC [40]: 0.063 µg/mL (≈ 0.117 µM) | MIC [41]: 0.063 µg/mL (≈ 0.117 µM) | MIC [42]: 0.031 µg/mL (≈ 0.0576 µM) | MIC [43]: 0.031 µg/mL (≈ 0.0576 µM) | MIC [44]: 0.063 µg/mL (≈ 0.117 µM) | MIC [45]: ≤ 0.0078 µg/mL | MIC [46]: 0.063 µg/mL (≈ 0.117 µM) | MIC [47]: 0.031 µg/mL (≈ 0.0576 µM)
